Here are results for 85 compounds from a melting point compilation (Tetko et al.; mined from patent text by program, amines drawn as free bases though some values may be those of a salt).

Broadly, the melting point is the temperature of the solid-liquid transition.

Compound `O=C1NCCN1CCNc1cc(-c2ccncc2)c(-c2ccccc2)nn1` displayed a melting point of 206 to 207 °C.

The compound `CC(C)OC(=O)c1ccc(Nc2cccc(Br)c2)c([N+](=O)[O-])c1` yielded a melting point of 162 to 165 °C.

Take `CC(c1ccc(-c2ccccc2)o1)N(O)C(N)=O` (stereo not given): the melting point was 133 to 136 °C.

Compound `CCCCCCCCCCCCCCCCCCOC(=O)c1ccc(C(=O)OCCCCCCCCCCCCCCCCCC)cc1` returned a melting point of 140 °C.

`N#Cc1cccc(C(=O)Nc2cccc(-n3nc(C(F)(F)F)cc3C(F)(F)F)c2)c1` returned a melting point of 160 to 161 °C.

`CCOC(=O)Cn1c2cccccc-2c(C(N)=O)c1=O` displayed a melting point of 215 to 220 °C.

The compound `CN(C)C(=O)C1Cc2cc(Cl)ccc2NC1=O` (stereo not given) had a melting point of 302 to 305 °C.

`CC(C)c1cccc(C(C)C)c1NC(=S)CCC(=O)c1ccccc1` gave a melting point of 168 to 169 °C.

`CCOCc1nc2c(N)nc3cc(-c4cccnc4)ccc3c2n1CC(C)(C)OCCS(C)(=O)=O` returned a melting point of 202 to 204 °C.

`Cc1ccc2c(n1)N(CCCN(C)C)c1ccccc1N(C)C2=O` showed a melting point of 130 to 131 °C.

In turn, `O=C(Nc1ccc(F)cc1)Oc1ccc2c(c1)N(Cc1ccccc1)CCC2` yielded a melting point of 130 °C.

In the case of `Cc1ccccc1C(=O)CN1C(=O)C(NC(=O)Nc2cccc(C(=O)O)c2)N=C(c2ccccc2F)c2cccc(C)c21` (stereo not given), the melting point is 168 to 176 °C.

Compound `CC(C)(C)Nc1nc2cc(CC(=O)O)ccc2o1` showed a melting point of 175 to 176 °C.

As to `COc1cc(-c2nc(NC(C)(C)C)c3c(C)c(C#N)sc3n2)cc(OC)c1OC`, the melting point was in the range of 195 to 197 °C.

In turn, `O=S(=O)(c1ccccc1)c1c(-c2ccc(Cl)cc2)[nH]c(Br)c1Br` came in with a melting point above 200 °C.

The compound `CCc1c2nc(-c3cc(C(C)=O)cnc3OCC(C)C)[nH]c(=O)c2nn1C1CCN(C)CC1` displayed a melting point of 195 to 196 °C.

The compound `O=C(CN1CCC(CN2C(=O)c3ccccc3C2=O)CC1)c1ccc(F)cc1` came in with a melting point of 110 to 113 °C.

For `CCOC(=O)c1cn(C2CC2)c2c(F)c(N3CCN(C)CC3)c(F)c([Si](C)(C)C)c2c1=O`, the melting point was 231 to 233 °C.

`CCC1C=C2NC(=O)CC[C@]2(C)[C@H]2CC[C@]3(C)[C@@H]([C@H](C)CCCC(C)C)CC[C@H]3[C@H]12` (stereo not given in full) displayed a melting point of 147 to 149 °C.

Consider `O=S(=O)(c1ccc(F)cc1)N1CCCC1c1ccc(F)c(Cl)c1` (racemic), for which the melting point came to 116 °C.

In the case of `Cc1nc2ccccc2n2cnc(-c3noc(C4CC4)n3)c12`, the melting point is 165 to 167 °C.

As to `CCCCOc1ccc(S(=O)(=O)C2(C(=O)NO)CCN(CCCOc3ccccc3)CC2)cc1`, the melting point was determined as 84 °C.

`CNc1ccccc1C(=O)n1nc(O)c2cc(N)ccc21` displayed a melting point of 169 to 170 °C.

For `C/C(=N\OCCOc1ccc(C(=O)O)c(Cl)c1)c1ccc(C(C)(C)C)cc1`, the melting point is 143 to 144 °C.

The compound `Clc1ccc(-c2ccco2)nn1` gave a melting point of 103 to 104 °C.

Turning to `COc1ccc(-n2c(Cn3ccnc3)nc3ccccc32)cc1`, the melting point was in the range of 113 to 114 °C.

Compound `Cn1nnnc1-c1cccc(Oc2cccc(C(F)(F)F)c2)n1` showed a melting point of 92 to 94 °C.

As for `CCCCCCCCCCCCCCCCCCCC(=O)Nc1ccc(NC(=O)NS(=O)(=O)c2ccc3ccccc3c2)cc1`, the melting point turned out to be 179 °C.

For `CCCOc1cc([N+](=O)[O-])ccc1[N+](=O)[O-]`, the melting point was in the range of 52 to 54 °C.

With `NC(=O)[C@H](O)[C@@H](O)CO`, the melting point was in the range of 105 to 107 °C.

On to `COCCN(C)C(=O)NCCNCC(O)COc1ccc(OCCOCC(C)C)cc1` (stereo not given), for which the melting point is 60 to 63 °C.

Compound `CC(=O)NC[C@H]1CN(c2ccc(N3CCC4(CC3)C[C@@H]4C#N)c(F)c2)C(=O)O1` displayed a melting point of 156 °C.

The compound `COc1cc([N+](=O)[O-])c2nccc(C)c2c1OCCCCCCCCc1ccccc1` came in with a melting point of 39.5 to 41 °C.

As for `CCOC(=O)[C@H](CSCc1ccccc1)NC(=O)C(C)(C)NC(=O)[C@@H](SC(C)=O)C(C)C`, the melting point was in the range of 69 to 71 °C.

For the compound `COC(=O)c1cc(C(=O)N[C@@H](Cc2ccccc2)[C@H](O)CNC2(c3cccc(C(F)(F)F)c3)CC2)n2c1CN(C(=O)OC(C)(C)C)CC2`, the melting point is 136 °C.

With `Cc1cccc(-c2ccc3c(c2)c(CC(=O)O)cn3Cc2ccc(C(C)(C)C)cc2)c1`, the melting point lay within 91 to 92 °C.

Regarding `O=C(c1c(O)c2ccccc2c2nc3ccccc3nc12)N1CCOCC1`, the melting point fell in the range of 223 to 225 °C.

For `Nc1nc(N)c(-c2ccc(Cl)cc2Cl)c(C=NO)n1`, the melting point fell in the range of 260 to 265 °C.

The compound `CCOC(=O)Cc1ccc(-c2nc(COc3cc(C(=O)OC)on3)c(C)o2)cc1` came in with a melting point of 124 to 126 °C.

Compound `Cn1ncc(C(=O)N2CCCC2)c1C(=O)Nc1ccc2nc(-c3ccccc3)nn2c1` returned a melting point of 210 °C.

In turn, `N=C(N)N1CCN(C23CC4CC(CC(C4)C2)C3)CC1` came in with a melting point of 182 to 186 °C.

With `CCOC(=O)c1ccc(OCCC2CCN(c3ccc(C)nn3)CC2)s1`, the melting point was 114 °C.

`CNC(=O)[C@@H](C[C@H](O)[C@H](CC1CCCCC1)NC(=O)[C@H](Cc1cscn1)NC(=O)[C@@H](CC(=O)N1CCOCC1)Cc1ccccc1)C(C)(C)O`: the melting point fell in the range of 150 to 152 °C.

`N#CC1c2ccccc2Oc2cc(O)cc(O)c21` (stereo not given) yielded a melting point of 211 to 215 °C.

As to `CN(Cc1ccc(Cl)c(Cl)c1)C(=O)C1=C(O)C(=O)N(C2CC2)C1`, the melting point lay within 163 to 164 °C.

In turn, `COc1cc2c(cc1OCCCN1CCC(c3[nH]cc4cc(F)ccc34)CC1)CCCC2=O` registered a melting point of 129 to 131 °C.

`COC(=O)c1ccc(C(=O)N[C@@H](CC(C)C)C(=O)N[C@@H](C(C)C)[C@@H](O)c2c(-c3ccccc3)c2=O)cc1`: the melting point lay within 125 to 128 °C.

As for `OCc1cc2cccc3cc(-c4ccc(O)cc4)c1n23`, the melting point was in the range of 185 to 190 °C.

In turn, `CC1(Br)Cc2cc(C(=O)O)ccc2C1=O` (stereo not given) showed a melting point of 203 to 205 °C.

As for `NC(=O)NC[C@@H]1CCCc2cc(S(=O)(=O)c3cccc(F)c3)ccc21`, the melting point is 155 to 156 °C.

The compound `CCOC(=O)c1ccc(NC(=O)N2CCn3c(c(C(N)=O)c(Cl)c3-c3ccccc3)C2)cc1` showed a melting point of 260 to 262 °C.

Compound `O=C(O)CCOc1cccc2ncccc12` registered a melting point of 217 to 219 °C.

`CCc1cc(Cl)c(OC)c(C(=O)N[C@H]2CCN(CCCC(=O)N3CCCC3)C[C@H]2OC)c1O` (relative stereo) had a melting point of 90.8 °C.

`COC(=O)C(CC(=O)c1ccc(Oc2ccccc2)cc1)SC(C)=O` (stereo not given) registered a melting point of 59 to 61 °C.

With `CCCCNC(=O)OCCCc1ccc(OCCOC)cc1Oc1ncc(C(F)(F)F)cc1Cl`, the melting point is 91.7 to 91.8 °C.

On to `CCCc1nc2c(N)nc(C)c(C)c2n1CCCS(C)(=O)=O`, for which the melting point lay within 154 to 155 °C.

`CCCCc1oc2ccccc2c1C(=O)Nc1ccc2c(Br)c(OCc3nn[nH]n3)ccc2c1` came in with a melting point of 242 to 245 °C.

For the compound `O=[N+]([O-])c1ccc(CCN2CCN(c3ccc([N+](=O)[O-])cc3Cl)CC2)cc1`, the melting point was 100 to 102 °C.

Regarding `O=C(COc1cc(-c2ccccc2F)nc2ccccc12)N1CCOCC1`, the melting point was found to be 145 °C.

`O=C(O)c1csnc1-c1cc(C(F)(F)F)cc(C(F)(F)F)c1` returned a melting point of 151 to 154 °C.

Consider `Cc1cccc(N2C(=O)NCc3cccnc32)c1`, for which the melting point lay within 212 to 214 °C.

`Cn1nnc2cccc(C(O)c3cccc(F)c3)c21` (stereo not given) registered a melting point of 152 °C.

Take `O=S(=O)(CCCl)C(c1ccccc1)S(=O)(=O)CCCl`: the melting point was in the range of 106 to 108 °C.

`CN1CC[C@H](c2c(O)cc(O)c3c(=O)cc(-c4ccccc4Cl)oc23)[C@H](O)C1` had a melting point of 182 °C.

On to `CCCCCNc1nc(SC)nc2c(C)n[nH]c12`, for which the melting point was in the range of 88 to 90 °C.

With `COC(=O)c1c(Cl)cc(Cl)cc1NC(=O)CSc1ccccc1C(=O)O`, the melting point lay in the range of 165 to 166 °C.

With `COc1ccc(CN2C(=O)C3(COc4cc(O)c(C#N)cc43)c3ccccc32)cc1` (stereo not given), the melting point is 112 to 114 °C.

In turn, `O=C(Nc1cc(Cl)cc(Cl)c1O)C(=O)Nc1ncc(Cl)cc1Cl` displayed a melting point of 245 °C.

Consider `COCCNc1nc(Cc2ccc(OC)c(OC)c2)nc2sc(C#N)c(C)c12`, for which the melting point lay within 94 to 97 °C.

Consider `CCOC(=O)C1=C(C)N=C(SCc2ccc(OC)cc2)N(C(=O)OCC)C1c1cccc(Cl)c1Cl` (stereo not given), for which the melting point fell in the range of 124 to 126 °C.

In turn, `COc1ccc(-c2nc(-c3ccc4c(c3)CCCN4C(C)=O)cs2)cc1OC` showed a melting point of 148 °C.

On to `O=C1N(C(c2ccccc2)c2ccccc2)c2cc(F)ccc2C1(O)c1cc2c(cc1O)OCC2` (stereo not given), for which the melting point lay within 147 to 149 °C.

`CC(=O)c1cc(C(=O)O)c(=O)[nH]c1C`: the melting point fell in the range of 238 to 241 °C.

Take `CC1Oc2cc(Cl)ccc2/C1=N\NC(=O)Nc1ccc(C(F)(F)F)cc1` (stereo not given): the melting point was in the range of 205 to 207 °C.

`CC(C)[C@H](CCC(=O)O)NC(=O)OC(C)(C)C` gave a melting point of 107 to 109 °C.

The compound `N#Cc1ccc(OCc2ccsc2)cc1OC(C(=O)O)c1ccccc1C(F)(F)F` (racemic) gave a melting point of 38 to 40 °C.

As for `Cc1nc2c(c3c1[nH]c1ccccc13)C(=NO)CC(C)C2` (stereo not given), the melting point is 282 to 283 °C.

`CCNc1ccc(C(=O)Nc2ccc(OC)cc2)c(NC(=O)c2ccc(C(C)(C)C)cc2)c1`: the melting point fell in the range of 205 to 208 °C.

As to `OC1CSC(Oc2ccc(-c3ccc(F)nc3)nc2F)C(O)C1O` (stereo not given), the melting point was 141 to 144 °C.

For `N#CC(c1ccc(Cl)c(Cl)c1)c1c(Cl)cc(N)cc1Cl` (stereo not given), the melting point fell in the range of 191 to 194 °C.

Compound `CC(=O)N[C@@H](Cc1ccc2ccccc2c1)C(=O)OCc1cc(C)cc(C)c1` returned a melting point of 96 to 97 °C.

`CC(C)CC(C)c1cc(C(C(F)(F)F)C(F)(F)F)ccc1NC(=O)c1c(C(F)(F)F)nn(C)c1Cl` (stereo not given) registered a melting point of 102 to 104 °C.

For the compound `COc1cccc2c(=O)c3cccc(OC)c3sc12`, the melting point lay in the range of 248 to 250 °C.

`O=C(c1ccccc1)C(CCCCl)c1ccccc1` (stereo not given) registered a melting point of 72 to 74 °C.

Take `Cc1cc2oc(=O)c3c(c2cc1[N+](=O)[O-])CCNC3`: the melting point lay within 197 to 199 °C.
